Assay results as given in publication PMC10232258 (Journal of Antimicrobial Chemotherapy, 2023).
One block for each molecule: values may come before it.

Key:
Population PK analysis = type: in vivo, human; conditions: for CLTFV: full model
[1] = average of five clinical studies (Table S4)
[2] = ref Yager et al. 50; cited from earlier work
[3] = cited from earlier work
HIV-1 = conditions: background statement; cited from earlier work
[4] = full final model, bootstrap median

SMILES: CC(C)OC(=O)[C@H](C)N[P@](=O)(CO[C@H](C)Cn1cnc2c(N)ncnc21)Oc1ccccc1 [tenofovir alafenamide]
Increase of relative bioavailability F (absorption of TAF) by cobicistat (Population PK analysis; TAF 10 mg with cobicistat versus 25 mg alone (F = 1)): 115%
Higher intracellular exposure in tenofovir diphosphate, TAF versus TDF [1]: six-fold
Tenofovir diphosphate levels, TAF once every 3 days versus TDF every day [2]: 2.6 times
Lower plasma levels of tenofovir under standard TAF versus TDF dosage [3]: 90%
Potency relative to tenofovir disoproxil fumarate (HIV-1): 10 times

CLTFV (Population PK analysis; 80-year-olds): 36 L/h
CLTFV lower than in normal kidney function (Population PK analysis; CLCR of 20 mL/min (stage 3 CKD) versus normal kidney function): 57%
CLTFV, apparent clearance of tenofovir (Population PK analysis; base model, ka fixed to 2 h−1): 39.9 L/h
θAge, age effect on CLTFV (Population PK analysis; [4]): −0.242
θBlack or Hispano American, ethnicity effect on CLTFV (Population PK analysis; [4]): 0.120
θCobicistat, effect of cobicistat on F (Population PK analysis; [4]): 1.16
θPotent P-gp inhibitors, effect on CLTFV (Population PK analysis; [4]): −0.119
CLTFV, apparent clearance of tenofovir (Population PK analysis; full final model, bootstrap median (n = 2000 samples)): 42.3 L/h
θBlack or Hispano American, ethnicity effect on CLTFV (Population PK analysis; full final model, estimate): 0.119
θPotent P-gp inhibitors, effect on CLTFV (Population PK analysis; full final model, estimate): −0.121
θAge, age effect on CLTFV (Population PK analysis; full final model, estimate, Agemedian = 51 years): −0.244
CLTFV, apparent clearance of tenofovir (Population PK analysis; full final model, estimate, CLCR-ref 100 mL/min, median age 51 years): 42.2 L/h
VTFV, apparent volume of distribution of tenofovir (Population PK analysis; full final model, estimate, PLWH after oral TAF): 2390 L
Tmax (Population PK analysis; human, plasma, oral): 2.4 h
half-life (Population PK analysis; human, plasma, oral): 46 h
Vd (Population PK analysis; human, plasma, oral, VTFV, apparent volume of distribution of tenofovir, full final model, bootstrap median (n = 2000 samples)): 2400 L
CLTFV (Population PK analysis; individuals with CLCR of 20 mL/min (stage 3 CKD)): 18 L/h
CLTFV (Population PK analysis; normal kidney function): 42 L/h
CLTFV (Population PK analysis; younger PLWH, median age 51 years): 42 L/h
SMILES: C[C@H](Cn1cnc2c(N)ncnc21)OCP(=O)(O)O [tenofovir]
